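Assay format: 96-well plates, 48-hour exposure. Abbreviation: GI50, concentration required for 50% inhibition of growth. Definition used: TGI = concentration required for complete inhibition of growth.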
How the values were obtained:
Assay in all cases: inhibition of tumour cell growth, NCI panel, 48 h
MALME-3M melanoma = test system: MALME-3M melanoma
ACHN renal = test system: ACHN renal
OVCAR-4 ovarian = test system: OVCAR-4 ovarian
MOLT-4 leukemia = test system: MOLT-4 leukemia
IGROV1 ovarian = test system: IGROV1 ovarian
SK-OV-3 ovarian = test system: SK-OV-3 ovarian
SK-MEL-5 melanoma = test system: SK-MEL-5 melanoma
PC-3 prostate = test system: PC-3 prostate
HS 578T breast = test system: HS 578T breast
BT-549 breast = test system: BT-549 breast

| Structure (SMILES) | TGI (MALME-3M melanoma) [µM] | TGI (ACHN renal) [µM] | TGI (OVCAR-4 ovarian) [µM] | TGI (MOLT-4 leukemia) [µM] | TGI (IGROV1 ovarian) [µM] | TGI (SK-OV-3 ovarian) [µM] | TGI (SK-MEL-5 melanoma) [µM] | GI50 (MALME-3M melanoma) [µM] | GI50 (PC-3 prostate) [µM] | TGI (PC-3 prostate) [µM] | GI50 (ACHN renal) [µM] | GI50 (MOLT-4 leukemia) [µM] | GI50 (IGROV1 ovarian) [µM] | GI50 (SK-OV-3 ovarian) [µM] | GI50 (SK-MEL-5 melanoma) [µM] | GI50 (OVCAR-4 ovarian) [µM] | GI50 (HS 578T breast) [µM] | TGI (HS 578T breast) [µM] | GI50 (BT-549 breast) [µM] | TGI (BT-549 breast) [µM] |
| --- | --- | --- | --- | --- | --- | --- | --- | --- | --- | --- | --- | --- | --- | --- | --- | --- | --- | --- | --- | --- |
| O=[N+]([O-])c1cc(Cl)ccc1OCc1ccccc1 | > 100 | > 100 | > 100 | > 100 | > 100 | > 100 | 70.5 |  |  |  |  |  |  |  |  |  |  |  |  |  |
| CCCCc1n(Cc2ccc3ccccc3c2)cc[n+]1Cc1ccc2ccccc2c1 | 2.64 | 4.19 |  | 3.4 | 2.26 | 2.75 | 1.86 | 1.18 | 1.11 | 2.53 | 1.97 | 1.39 | 0.732 | 1.38 | 0.612 |  |  |  |  |  |
| C=CC/C(=C\COP(=O)(OCc1ccc([N+](=O)[O-])o1)N(C)CCCCCl)CC/C=C(\C)CCC=C(C)C (configuration not stated) |  | 30.2 | 39.3 | 36.3 |  | 30.6 |  |  | 12 | 24.3 | 15.5 | 8.03 |  | 16 |  | 17.2 |  |  |  |  |
| CCCCN(CCCC)CCC(O)c1cc2c(Cl)cc(Cl)cc2c2cc(C(F)(F)F)ccc12 (configuration not stated) | 30 | 25.6 | 28.5 | 29.3 | 26.5 | 26.9 |  |  |  | 22.2 |  |  |  |  |  |  |  |  |  |  |
| COC(=O)C1C=NNC1C(=O)OC (configuration not stated) | > 100 | > 100 | > 100 | > 100 | > 100 | > 100 | > 100 |  |  |  |  |  |  |  |  |  |  |  |  |  |
| CCN(CC)C(=O)N1CCN(C=S)CC1 | > 100 | > 100 | > 100 | > 100 | > 100 | > 100 | > 100 |  |  |  |  |  |  |  |  |  |  |  |  |  |
| C=C1C2CC(OC(C)=O)C3(C)C(c4ccoc4)OC(=O)[C@@H](O)[C@]13OC1C[C@H](OC(C)=O)C(C)(C)[C@H](CC(=O)OC)[C@]12C (some centres not stated) |  | > 100 | > 100 | > 100 | > 100 | > 100 | > 100 |  |  |  |  |  |  |  |  |  |  |  |  |  |
| CCOC(=O)c1c(C)nc2c(c1N)CC(=O)N2CCc1ccccc1 | 4.9 | 6.48 | 3.26 | 21.4 | 13 | 36.7 | 13.6 | 1.31 | 0.579 | 24.2 | 0.595 | 0.822 | 1.26 | 8.46 | 0.939 | 1.48 | 12.4 | 62.3 |  |  |
| COc1ccc2c(Cl)cc(NC(=O)Nc3c(C)cccc3C)nc2c1 | 58.5 | 24.7 |  | > 100 | > 100 | 83 | > 100 | 10.2 | 24.5 | > 100 | 3.59 | 45.9 | 21.9 | 4.37 | 18.1 |  |  |  | 36 | > 100 |
| O=[N+]([O-])c1ccccc1C=NC12CC3CC(CC(C3)C1)C2 | > 100 | > 100 | > 100 | > 100 | > 100 | > 100 | > 100 |  |  |  |  |  |  |  |  |  |  |  |  |  |
| COC(=O)N/N=C(/CCC(=O)Nc1ccc(C)c(C)c1)CC(=O)C(C)(C)C | > 100 | > 100 | > 100 | > 100 | > 100 | > 100 | > 100 |  |  |  |  |  |  |  |  |  |  |  |  |  |
| O=C1Nc2ccccc2/C1=C\c1nc(C2CCN(S(=O)(=O)c3ccc(F)cc3)CC2)n2ccccc12 |  | > 100 |  | > 100 | > 100 | > 100 |  |  | 4.98 | > 100 | 4.07 | > 100 | 2.69 | 4.96 |  |  | 1.22 | 5.78 | 1.85 | 8.48 |
| CC1C[C@]2(C[C@@H](C)C(=O)O2)O[C@@H]2CC3(C)[C@@H]4CCC5C(C)(C)OC(=O)C[C@H]6OO[C@]4(CC[C@]3(C)C12)CC56O (some centres not stated) | > 100 | > 100 | > 100 |  | > 100 | > 100 | > 100 |  |  |  |  |  |  |  |  |  |  |  |  |  |
| CCOC(=O)[C@H]1Nc2ccc([N+](=O)[O-])cc2C2c3ccccc3CC21 (some centres not stated) | 68 | 72.3 | 49.8 | 69.1 | > 100 |  | 30.7 |  |  |  |  |  |  |  |  |  |  |  |  |  |
| CC(C)CC(Nc1c(O)ccc2ccccc12)C(=O)O (configuration not stated) | 39.2 | 76 | > 100 | > 100 | > 100 | 66.3 | 38.7 |  |  |  |  |  |  |  |  |  |  | 95.9 |  | 83.6 |
| CC(=O)[CH-]C(=O)c1ccccc1.CC(=O)[CH-]C(=O)c1ccccc1.Cl.[O-]c1ccccn1.[O-]c1ccccn1.[Ti+4] | > 100 | > 100 | > 100 | > 100 | > 100 | > 100 | > 100 | > 100 |  |  | > 100 | > 100 | > 100 | > 100 | > 100 | > 100 |  |  |  |  |
| CC(/C=C/c1ccccc1)=N\NC(N)=S | > 100 | > 100 |  | > 100 | > 100 | > 100 | > 100 |  |  | > 100 |  |  |  |  |  |  |  |  |  | > 100 |
| C[C@]1(Cn2ccnn2)C(C(=O)O)N2C(=O)CC2S1(=O)=O (some centres not stated) | > 100 | > 100 | > 100 |  | > 100 | > 100 | > 100 | > 100 | > 100 | > 100 | > 100 |  | > 100 | > 100 | > 100 | > 100 | > 100 | > 100 | > 100 | > 100 |
| CC12CO[C@@](C)(CC(S(=O)(=O)c3ccccc3)C1)O2 (some centres not stated) | > 100 | > 100 | > 100 | > 100 | > 100 | > 100 | > 100 |  |  |  |  |  |  |  |  |  |  |  |  |  |
| O=S1(=O)CCCS(=O)(=O)C(c2ccccc2)=C1c1ccccc1 | > 100 | > 100 | > 100 | > 100 | > 100 | > 100 | > 100 |  |  |  |  |  |  |  |  |  |  |  |  |  |
| Cc1ccc(-c2cc(=O)c3cc(C)c(C)c(C(=O)O)c3o2)cc1N | > 100 | > 100 | > 100 | > 100 | > 100 | > 100 | > 100 |  |  |  |  |  |  |  |  |  |  |  |  |  |
